The source of these data is ChEMBL document CHEMBL4699435, “Synthesis and biological screening of a library of macamides as TNF-alpha inhibitors” (RSC Med Chem, 2020).

The nature of data set [1]: Cytotoxicity against human THP-1 cells assessed as reduction in cell viability incubated for 72 hrs by MTT assay. Format: cell-based. (Formazan colour is commonly taken as a measure of viable cells.)
The subject of data set [2] is THP-1. The data set can be described thus: Inhibition of LPS-induced TNFalpha production in human THP-1 cells incubated for 2 hrs followed by LPS stimulation and measured after 12 hrs by ELISA. In kind it is functional, cell-based. On the technique in general: In an ELISA, binding on a coated surface is turned into a signal by an enzyme label.
The subject of data set [3] is THP-1. The data set can be described thus: Potency index, ratio of IC50 of N-(2-hydroxyethyl)-7Z,10Z,13Z,16Z-docosatetraenamide to IC50 of compound for inhibition of LPS-induced TNFalpha production in human THP-1 cells incubated for 2 hrs followed by LPS stimulation and measured after 12 hrs by ELISA. In kind it is functional.
For data set [4], the system named is THP-1. The data set is described as follows: Potency index, ratio of IC50 of N-oleoyldopamine-macamide to IC50 of compound for inhibition of LPS-induced TNFalpha production in human THP-1 cells incubated for 2 hrs followed by LPS stimulation and measured after 12 hrs by ELISA. In kind it is functional.
Data set [5] has as its system THP-1. The data set is described as follows: Potency index, ratio of IC50 of C87 to IC50 of compound for inhibition of LPS-induced TNFalpha production in human THP-1 cells incubated for 2 hrs followed by LPS stimulation and measured after 12 hrs by ELISA. In kind it is functional.

Turning to `CCCCCCCC/C=C\CCCCCCCC(=O)NCc1ccccc1`, the cytotoxic concentration (CC50) at 72 h in data set [1] is 97.3 µM. This compound showed a 50% inhibitory concentration (IC50) with THP-1 [2] of 15.2 µM.

For `CCCCCCCCCCCCCCCC(=O)NCc1ccccc1`, the cytotoxic concentration (CC50) at 72 h in data set [1] worked out at 100 µM. The compound also had a 50% inhibitory concentration (IC50) with THP-1 [2] of 43.1 µM.

On to `CCCCCCCCCCCCCCCCCC(=O)NCc1ccccc1`, for which, in data set [1], the 50% cytotoxic concentration (CC50) at 72 h was found to be 100 µM. Further, the IC50 with THP-1 [2] is 16.6 µM.

As for `CCCCC/C=C\C/C=C\CCCCCCCC(=O)NCc1ccccc1`, in data set [1], the CC50 at 72 h was determined as 98.4 µM. This compound also gave a 50% inhibitory concentration (IC50) with THP-1 [2] of 14.2 µM.

In the case of `CCCCC/C=C\C/C=C\CCCCCCCC(=O)OC(C)c1cc(C)cc(C)c1` (configuration not stated), the cytotoxic concentration (CC50) at 72 h in data set [1] is 90.1 µM. Further, in the data set with THP-1 [2], the midpoint of inhibition, the IC50, lay at 0.009 µM. Moreover, the “Ratio IC50” value with THP-1 [3] is listed as 200; in the data set on THP-1 [4], 200; in the data set on THP-1 [5] it was 12.

For the compound `CCCCC/C=C\C/C=C\CCCCCCCC(=O)NC(C)C12CC3CC(CC(C3)C1)C2` (configuration not stated), the CC50 at 72 h in data set [1] was determined as 90.9 µM. The compound also came in with an IC50 in the data set with THP-1 [2] of 0.78 µM.

For the compound `CCCCC/C=C\C/C=C\CCCCCCCC(=O)NC(C)c1cccc(C)c1` (configuration not stated), the CC50 at 72 h in data set [1] came out at 91.7 µM. This compound displayed a concentration for half-maximal inhibition (IC50) with THP-1 [2] of 0.33 µM.

As to `CCCCC/C=C\C/C=C\CCCCCCCC(=O)NC(C)(C)c1ccccc1`, in data set [1], the CC50 at 72 h worked out at 97.3 µM. The compound further displayed a concentration for half-maximal inhibition (IC50) with THP-1 [2] of 13.1 µM.

On to `CCCCC/C=C\C/C=C\CCCCCCCC(=O)NC(C)c1ccc(F)cc1` (configuration not stated), for which the cytotoxic concentration (CC50) at 72 h in data set [1] was determined as 82.5 µM. The IC50 in the data set on THP-1 [2] was found to be 0.78 µM.

`CCCCC/C=C\C/C=C\CCCCCCCC(=O)NNc1ccccc1`: in data set [1], the half-maximal cytotoxic concentration (CC50) at 72 h was determined as 98.1 µM. Besides, in the data set on THP-1 [2], it took 8.9 µM to reach half-maximal inhibition (IC50).

`CCCCC/C=C\C/C=C\CCCCCCCC(=O)NCCc1ccccc1`: the half-maximal cytotoxic concentration (CC50) at 72 h in data set [1] was determined as 88.2 µM. This compound came in with a half-maximal inhibitory concentration (IC50) in the data set with THP-1 [2] of 15.7 µM.

Take `CCCCC/C=C\C/C=C\CCCCCCCC(=O)NC(C)c1ccc(CC)cc1` (configuration not stated): in data set [1], the CC50 at 72 h amounted to 89.8 µM. In the data set with THP-1 [2], this compound yielded a 50% inhibitory concentration (IC50) of 1.21 µM.

With `CCCCC/C=C\C/C=C\CCCCCCCC(=O)NC(C)c1cc(C)cc(C)c1` (configuration not stated), the half-maximal cytotoxic concentration (CC50) at 72 h in data set [1] was found to be 93.2 µM. The IC50 with THP-1 [2] came to 0.08 µM.

On to `CCCCC/C=C\C/C=C\CCCCCCCC(=O)Nc1ccccc1`, for which the CC50 at 72 h in data set [1] was 97.8 µM. Further, it took 21 µM to reach half-maximal inhibition with THP-1 [2] (IC50).

On to `CCCCC/C=C\C/C=C\CCCCCCCC(=O)NC(CO)c1ccccc1` (configuration not stated), for which the 50% cytotoxic concentration (CC50) at 72 h in data set [1] was determined as 98 µM. Moreover, the half-maximal inhibitory concentration (IC50) in the data set on THP-1 [2] was found to be 56.8 µM.

With `CCCCC/C=C\C/C=C\CCCCCCCC(=O)NC(C)C1CCCCC1` (configuration not stated), the half-maximal cytotoxic concentration (CC50) at 72 h in data set [1] amounted to 93.2 µM. The compound further showed an IC50 in the data set on THP-1 [2] of 0.71 µM.

In the case of `CCCCC/C=C\C/C=C\CCCCCCCC(=O)NC(C)c1ccc(O)cc1` (configuration not stated), the half-maximal cytotoxic concentration (CC50) at 72 h in data set [1] was found to be 93.5 µM. Besides, the 50% inhibitory concentration (IC50) with THP-1 [2] came out at 1.84 µM.

Take `CCCCC/C=C\C/C=C\CCCCCCCC(=O)NCCCc1ccccc1`: the cytotoxic concentration (CC50) at 72 h in data set [1] stood at 80.3 µM. The compound further yielded an IC50 with THP-1 [2] of 8.3 µM.

`CCCCCCCC(=O)NCc1ccccc1`: in data set [1], the CC50 at 72 h was 100 µM. In addition, in the data set with THP-1 [2], the concentration for half-maximal inhibition (IC50) is 58.7 µM.

In the case of `CCCCC/C=C\C/C=C\CCCCCCCC(=O)NC(C)c1ccc(C)cc1` (configuration not stated), in data set [1], the CC50 at 72 h was 95 µM. 0.62 µM corresponded to half-maximal inhibition in the data set on THP-1 [2] (IC50).

With `CCCCC/C=C\C/C=C\CCCCCCCC(=O)NC(C)c1ccc(Br)cc1` (configuration not stated), the CC50 at 72 h in data set [1] was found to be 81.4 µM. Further, the concentration for half-maximal inhibition (IC50) in the data set with THP-1 [2] is 0.74 µM.

`CCCCC/C=C\C/C=C\CCCCCCCC(=O)OCc1ccccc1`: the CC50 at 72 h in data set [1] came to 95.4 µM. The IC50 with THP-1 [2] was 6.4 µM.

For the compound `CCCCC/C=C\C/C=C\CCCCCCCC(=O)NC(C)C(C)(C)C` (configuration not stated), in data set [1], the CC50 at 72 h turned out to be 94.7 µM. In addition, 1 µM corresponded to half-maximal inhibition in the data set with THP-1 [2] (IC50).

In the case of `CCCCC/C=C\C/C=C\CCCCCCCC(=O)NC(CC)c1ccccc1` (configuration not stated), in data set [1], the 50% cytotoxic concentration (CC50) at 72 h is 96.5 µM. Also, the midpoint of inhibition in the data set on THP-1 [2], the IC50, lay at 19.7 µM.

In the case of `CCCCC/C=C\C/C=C\CCCCCCCC(=O)NC(C)c1ccccc1` (configuration not stated) [MALINAMIDE], in data set [1], the CC50 at 72 h worked out at 95.8 µM. The IC50 in the data set with THP-1 [2] is 5.2 µM.

As for `CCCCCCCC/C=C\CCCCCCCC(=O)O` [OLEIC ACID], the CC50 at 72 h in data set [1] was 100 µM. Further, the IC50 in the data set on THP-1 [2] is 79 µM.

In the case of `CCCCCCCC/C=C\CCCCCCCC(=O)NCCc1ccc(O)c(O)c1` [OLEOYL DOPAMINE], the CC50 at 72 h in data set [1] is above 100 µM. The compound also registered a half-maximal inhibitory concentration (IC50) with THP-1 [2] of 3.54 µM.

In general, CC50 refers to the concentration that lowers cell viability or growth by half. What is called IC50 is the concentration that inhibits the measured activity by half. A lower IC50 goes with higher potency.
